# Earlier results in patent US20070021506A1, “Stress relieving composition” (Ajinomoto Co., Inc., priority 2004, published 2007).
# Read-outs that look alike come from different tables or passages of the source.
# Assays:
# 5-HT4 receptor = target: T1, 5-HT4 receptor (Cavia porcellus, UniProt O70528); conditions: in vitro
# T1 construct: from tissue; host or cells: guinea pig ileum
# benzodiazepine receptor = conditions: Non-patent document 9
# 5HT-4 receptor = target: T2, 5HT-4 receptor (Rattus norvegicus, UniProt Q62758)
# T2 construct: suppressed anxiety disorder of rats induced by a 5HT-4 receptor agonist; from tissue; host or cells: living rats (whole animal; oral L-lysine, s.c. agonist)
# T2 sequence (Q62758 whole entry): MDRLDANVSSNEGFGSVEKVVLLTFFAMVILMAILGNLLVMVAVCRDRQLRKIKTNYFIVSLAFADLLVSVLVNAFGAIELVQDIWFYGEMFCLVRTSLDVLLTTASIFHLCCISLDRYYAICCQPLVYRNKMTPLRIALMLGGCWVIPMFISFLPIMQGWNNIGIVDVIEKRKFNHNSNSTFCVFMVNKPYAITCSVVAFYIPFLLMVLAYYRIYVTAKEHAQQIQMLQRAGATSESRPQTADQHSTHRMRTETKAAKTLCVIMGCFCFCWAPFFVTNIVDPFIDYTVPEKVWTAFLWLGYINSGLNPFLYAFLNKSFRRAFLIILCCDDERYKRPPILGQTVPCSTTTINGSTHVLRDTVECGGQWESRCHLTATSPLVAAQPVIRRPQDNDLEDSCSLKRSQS
# T1 sequence (O70528 whole entry): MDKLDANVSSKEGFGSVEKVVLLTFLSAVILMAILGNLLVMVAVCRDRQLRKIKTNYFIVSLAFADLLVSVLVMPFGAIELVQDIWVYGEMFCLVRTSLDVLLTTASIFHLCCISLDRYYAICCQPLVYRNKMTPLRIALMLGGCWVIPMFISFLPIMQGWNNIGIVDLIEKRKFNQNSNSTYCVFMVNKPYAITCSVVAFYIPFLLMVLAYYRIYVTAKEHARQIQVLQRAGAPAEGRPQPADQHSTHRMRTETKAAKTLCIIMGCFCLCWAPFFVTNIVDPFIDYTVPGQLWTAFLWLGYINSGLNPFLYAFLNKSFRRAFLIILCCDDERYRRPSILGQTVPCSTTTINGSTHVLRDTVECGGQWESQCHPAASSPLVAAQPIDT
smiles,measurement,setting,value
"N[C@@H](Cc1ccc(O)cc1)C(=O)O [Tyr, tyrosine]",mood,normal subjects exposed to mental stress,improved the mood significantly
same,effect in terms of mood criterion,patients with depression,a significant effect in terms of mood criterion was not observed
NCCCC[C@H](N)C(=O)O [L-lysine],5-HT-induced contraction of the guinea pig ileum,"5-HT4 receptor; 0.07 mmol/dl, P<0.05",blocked
same,5-HT-induced contraction of the guinea pig ileum,"5-HT4 receptor; 0.7 mmol/dl, P<0.01",blocked
same,action at benzodiazepine receptor,benzodiazepine receptor,benzodiazepine receptor agonist
same,anxiety disorder of rats induced by a 5HT-4 receptor agonist,"5HT-4 receptor; 1 g/kg, p.o., agonist 3.0 mmol/l s.c.",significantly suppressed
same,action at 5HT-4 receptor,"5HT-4 receptor; rat, in vivo",partially serves as a 5HT-4 receptor antagonist
"N[C@@H](Cc1c[nH]c2ccccc12)C(=O)O [Trp, tryptophan]",mood enhancement effect,clinical study conducted recently (Non-patent document 3),could not be fully supported
same,stress-induced mood,"comparative clinical study, taken alone or together with carbohydrates",relieved
